# According to patent publication US9290473B2, “Inhibitors of phosphatidylinositol-3-kinase (PI3) and inducers of nitric oxide (NO)” (COUCIL OF SCIENTIFIC & INDUSTRIAL RESEARCH, priority 2009, dated 2016):
# Like-named read-outs stand apart in the source and are kept apart here.
# Legend:
# [1] = system: prostate cancer cell line PC-3; assay: Cell viability, trypan blue exclusion, PC-3; type: cell-based, human; details: 72 hours incubation
# Description: (§1) Following cancer cell lines were used: chronic myeloid leukemia cell lines K562, KU812; acute myeloid leukemia cell lines HL60, U937; T-lymphoblastic leukemia cell line Molt-4; prostate cancer cell line PC-3; breast cancer cell line MCF-7; pancreatic cancer cell line MIA PaCa-2. These cancer cell lines were maintained in tissue culture in standard growth medium containing 10% heat-inactivated fetal bovine serum (FBS). Normal human peripheral blood mononuclear cells (PBMC) were separated from whole blood by Ficoll/Hypaque density gradient centrifugation. Peripheral blood samples were collected from normal donors with due approval from the Human Ethics Committee of Indian Institute of Chemical Biology, Kolkata, India, and all experiments with human blood were conducted under an approved institutional Human Ethics committee protocol. Informed consent was provided according to the Declaration of Helsinki. Cancer cell lines and PBMC (5×10^3) in triplicate were incubated in 0.2 mL of standard growth medium containing 10% FBS with varying concentrations of test compounds of the present invention. After 72 hours of incubation, cells were collected by centrifugation (at 1000 g for 5 minutes) and cell-viability was determined by the trypan blue exclusion assay. At least 200 cells were examined in each sample. Because of monolayer culture, treated and untreated PC-3, MCF-7 and MIA PaCa-2 cells were detached from the wells by treatment with Cell Dissociation Solution (Sigma Chemical, St. Louis, Mo.) before counting. Data are represented as IC50 (minimum concentration required to inhibit the viability by 50%) in Table 5.
# normal human PBMC = assay: Apoptosis/necrosis of normal human PBMC by flow cytometry; type: cell-based; details: 30 μM, 24 hours
# Protocol: FIG. 2C indicates flow cytometric determination of apoptosis and necrosis of normal human PBMC by Compound 1 (30 μM) and Compound 7 (30 μM) after incubation for 24 hours.
# MCF-7 xenografts = assay: Human breast adenocarcinoma (MCF-7) xenograft in nude mice; type: in vivo; details: 100 mg/kg body weight oral twice a day for 10 days
# Protocol: MCF-7 cells were suspended to 5×10^7 cells/ml in Matrigel (BD Biosciences; 1 volume of cells with 1 volume of cold Matrigel). Nude female mice of 6 to 7 weeks of age (National Institute of Nutrition, Hyderabad, India) were injected with 0.2 ml of this cell suspension. Animals were left untreated until MCF-7 xenografts reached 200-300 mm^3.
# Compound 1 (100 mg/kg body weight) or vehicle control were administered via oral route twice a day for 10 days (5 mice per group).
# [2] = system: endothelial nitric oxide synthase (eNOS); assay: NOS isoform siRNA transfection of MIA PaCa 2 cells, apoptosis and eNOS expression; type: cell-based, human; details: siRNA 48 hr, then 30 μM for 24 hr
# Protocol: MIA PaCa 2 cells were transfected with control siRNA, nNOS siRNA, iNOS siRNA or eNOS siRNA (purchased from Santa Cruz Biotechnology) for 48 hr. Transfections were carried out following the manufacturer's instructions. The transfection reagent used for siRNA transfection was purchased from Santa Cruz. Cells were then treated with vehicle control or Compound 1 (30 μM) for 24 hr. Apoptosis was analyzed by flow cytometry. To confirm that transfectin with siRNAs attenuate the protein expression of respective NOS isoforms, Western blot was performed with whole cell lysates.
# [3] = system: acute myeloid leukemia cell line HL60; assay: Cell viability, trypan blue exclusion, HL-60; type: cell-based; details: Homo sapiens
# Description: as §1
compound,measurement,setting,value
"C=CCc1ccc(O)c(O)c1 [Compound 1, 4-allyl-benzene-1,2-diol]",IC50,[1],35 µM
same,IC50,"[1]; Homo sapiens, 72 h",25 to 70 µM
same,Apoptosis and necrosis of normal human PBMC by flow cytometry,normal human PBMC,remained unaffected
same,In vivo efficacy in MCF-7 xenografts,MCF-7 xenografts,further confirmed
same,NOS isoform involved in induced nitric oxide production and cell death,[2],Endothelial nitric oxide synthase (eNOS) is responsible
same,IC50,"[3]; 72 hours incubation, trypan blue exclusion, read-out: Activity (IC50) HL-60",25 µM
same,IC50,"[3]; range over both cell lines HL60 and U937 and over the listed compounds, read-out: IC50 against acute myeloid leukemia cancer cell line (HL60, U937)",13 to 60 µM
